Data: the NIST ThermoML archive (doi:10.1016/j.jct.2005.09.003)

Key:
[1] = Liquid
[2] = refractive index (Na D-line) (dimensionless); conditions: 298.15 K; 101.33 kPa; Liquid; Standard Abbe refractometry

CCCCCCCl [1-chlorohexane]
mass density [kg/m3], [1]
Conditions	298.15 K	308.15 K	318.15 K	328.15 K
100 kPa	873.42	863.99	854.58	845.18
2130 kPa	874.73	865.56	856.27	847.12
4150 kPa	876.45	867.35	858.19	849.17
6180 kPa	878.31	869.15	860.06	851.16
8210 kPa	879.79	870.9	861.91	853.13
10230 kPa	881.44	872.61	863.73	855.02
11250 kPa	882.22	873.47	864.62	855.98
12260 kPa	883.01	874.3	865.5	856.91
14290 kPa	884.61	875.96	867.28	858.76
16310 kPa	886.16	877.59	869	860.59
18340 kPa	887.68	879.2	870.66	862.35
20370 kPa	889.18	880.78	872.33	864.12
22390 kPa	890.65	882.35	873.95	865.82
24420 kPa	892.14	883.86	875.54	867.51
26450 kPa	893.54	885.35	877.12	869.18
28470 kPa	894.96	886.84	878.67	870.8
29490 kPa	895.65	887.56	879.43	871.6
30500 kPa	896.32	888.21	880.19	872.4
32530 kPa	897.71	889.73	881.7	873.95
34550 kPa	899.05	891.14	883.17	875.49
36580 kPa	900.38	892.52	884.63	877.05
38600 kPa	901.69	893.9	886.04	878.53
39620 kPa	902.33	894.55	886.76	879.31

Conditions	refractive index
[2]	1.4172
